Patent publication US6685617B1, “Inhibitors of α4β1 mediated cell adhesion” (Pharmacia & Upjohn Company, priority 1998, dated 2004)
pIC50: −log10 of the molar value. Structures can show the parent of a compound that is named as a salt.

Assays:
[1] = target: T1, α4β1 integrin (Jurkat T-cell adhesion to IL-1 stimulated endothelial cell monolayers) (Homo sapiens, UniProt P05556+P13612); assay: Jurkat-endothelial cell adhesion assay (Jurkat EC); format: cell-based; conditions: Jurkat cells on IL-1 stimulated human umbilical vein endothelial cells; read-out: JK/EC (Jurkat EC Assay IC50 value range)
T1 construct: a T-cell line, Jurkat, known to express the α4β1 integrin; host or cells: Jurkat T-cell line
T1 sequence (P13612 34-1032): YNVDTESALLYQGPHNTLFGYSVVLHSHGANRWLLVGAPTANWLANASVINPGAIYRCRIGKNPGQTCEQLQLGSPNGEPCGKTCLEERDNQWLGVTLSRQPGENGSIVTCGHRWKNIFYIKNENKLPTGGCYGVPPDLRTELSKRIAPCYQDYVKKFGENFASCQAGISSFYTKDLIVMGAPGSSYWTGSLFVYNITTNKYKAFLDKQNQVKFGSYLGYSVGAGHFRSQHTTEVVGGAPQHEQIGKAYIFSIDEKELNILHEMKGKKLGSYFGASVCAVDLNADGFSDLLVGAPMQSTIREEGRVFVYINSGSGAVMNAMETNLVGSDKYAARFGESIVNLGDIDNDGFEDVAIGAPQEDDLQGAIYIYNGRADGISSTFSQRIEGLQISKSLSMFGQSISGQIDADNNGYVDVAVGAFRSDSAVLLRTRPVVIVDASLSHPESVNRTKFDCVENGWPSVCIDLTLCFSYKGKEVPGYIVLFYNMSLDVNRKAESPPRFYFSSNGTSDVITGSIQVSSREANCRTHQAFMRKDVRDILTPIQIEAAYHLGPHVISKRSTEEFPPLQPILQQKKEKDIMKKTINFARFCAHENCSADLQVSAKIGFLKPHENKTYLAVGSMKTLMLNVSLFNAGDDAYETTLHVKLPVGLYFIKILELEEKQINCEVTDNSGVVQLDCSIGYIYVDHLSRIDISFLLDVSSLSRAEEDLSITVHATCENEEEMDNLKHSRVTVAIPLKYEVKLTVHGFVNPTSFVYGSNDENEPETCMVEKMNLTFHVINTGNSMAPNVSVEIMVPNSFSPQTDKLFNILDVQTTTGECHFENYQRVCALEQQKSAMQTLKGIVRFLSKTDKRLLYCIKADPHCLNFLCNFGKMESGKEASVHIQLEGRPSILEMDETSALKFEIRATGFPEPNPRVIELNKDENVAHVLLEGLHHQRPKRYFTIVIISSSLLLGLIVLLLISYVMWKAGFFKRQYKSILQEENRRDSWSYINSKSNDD
T1 sequence (P05556 21-798): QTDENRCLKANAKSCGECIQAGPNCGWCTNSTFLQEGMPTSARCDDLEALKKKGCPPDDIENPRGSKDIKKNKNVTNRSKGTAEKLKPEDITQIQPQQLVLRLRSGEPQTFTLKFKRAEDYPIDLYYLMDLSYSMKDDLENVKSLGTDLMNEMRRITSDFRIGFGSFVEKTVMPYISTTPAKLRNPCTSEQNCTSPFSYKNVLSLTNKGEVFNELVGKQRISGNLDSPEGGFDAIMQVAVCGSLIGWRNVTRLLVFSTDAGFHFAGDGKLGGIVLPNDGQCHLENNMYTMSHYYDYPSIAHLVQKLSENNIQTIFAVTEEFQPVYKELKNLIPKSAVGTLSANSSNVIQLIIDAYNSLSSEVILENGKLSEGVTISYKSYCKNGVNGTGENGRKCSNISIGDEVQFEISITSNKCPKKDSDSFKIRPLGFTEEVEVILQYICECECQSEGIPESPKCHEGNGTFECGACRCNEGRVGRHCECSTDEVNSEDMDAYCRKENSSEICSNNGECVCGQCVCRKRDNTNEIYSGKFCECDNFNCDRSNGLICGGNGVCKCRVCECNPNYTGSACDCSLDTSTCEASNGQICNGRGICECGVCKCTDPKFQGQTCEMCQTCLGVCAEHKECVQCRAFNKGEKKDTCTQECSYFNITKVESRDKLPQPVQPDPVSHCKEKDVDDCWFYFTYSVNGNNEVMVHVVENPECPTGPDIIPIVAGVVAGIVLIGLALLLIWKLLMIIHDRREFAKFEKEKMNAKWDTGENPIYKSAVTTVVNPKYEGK
Method in brief: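 Adhesion was expressed as percent of compound-free fluorescence after 20 min at 37° C (following 5 min settling on ice) of BCECF-loaded Jurkat T cells on washed HUVEC monolayers. The endothelium, passage 6 or lower, had received 0.1 ng/ml recombinant IL-1 for 4 hr at 37° C; compound was premixed with the T cells, typically at 100, 20, 5 and 1.25 μM.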

[2] = target: T2, α4β1 integrin (Jurkat cell adhesion to immobilized CS-1 derived peptide CLHPGEILDVPST) (Homo sapiens, UniProt P05556+P13612); assay: Jurkat-CS-1 assay; format: cell-based; conditions: Jurkat cells on CS-1 peptide coated plates; read-out: JK/CS-1 (Jurkat CS-1 Assay IC50 value range)
T2 construct: 100 μl of Jurkat cells (2.5×10^6 cells/ml) in DMEM plus BSA; host or cells: Jurkat T-cell line
T2 sequence (P13612 34-1032): as the sequence (P13612 34-1032) above
T2 sequence (P05556 21-798): as the sequence (P05556 21-798) above
Method in brief: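 CS-1 peptide was SPDP-crosslinked onto HSA-coated plates and blocked with BSA. Jurkat cells (2.5×10^6 cells/ml) in DMEM/BSA were mixed with compound, generally at 100, 20, 5 and 1.25 μM, and allowed to adhere for 1 hr at 37° C. Bound cells were fixed, stained with toluidine blue and quantified by OD590.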

A pIC50 [1] of at most 6.00 and a pIC50 [2] of 6.12 to 7.30 were found for COC(=O)CCCC(=O)N1CSC[C@@H]1C(=O)N[C@@H](Cc1ccc(NC(=O)c2c(Cl)cccc2Cl)cc1)C(=O)OC (relative stereo) [Example 59, [S-(R*,R*)]-4-[[[1-[4-[(2,6-dichlorobenzoyl)amino]phenyl]methyl]-2-methoxy-2-oxoethyl]amino]carbonyl]-δ-oxo-3-thiazolidinepentanoic Acid 3-Methyl Ester] in this work.

A pIC50 [1] of at most 6.00 and a pIC50 [2] of at most 6.12 were found for CCOC(=O)N1CSC[C@H]1C(=O)N[C@@H](Cc1ccc(NC(=O)c2c(Cl)cccc2Cl)cc1)C(=O)OC (relative stereo) [Example 15, [R-(R*,S*)]-4-[[[1-[[4-[(2,6-Dichlorobenzoyl)amino]phenyl]methyl]-2-methoxy-2-oxoethyl]amino]carbonyl]-3-thiazolidinecarboxylic Acid 3-Ethyl Ester] in this work.

A pIC50 [1] of at most 6.00 and a pIC50 [2] of at most 6.12 were found for CCOC(=O)N1CSC[C@@H]1C(=O)N[C@@H](Cc1ccc(OCc2c(Cl)cccc2Cl)cc1)C(=O)NO [Example 92] in this work.

A pIC50 [1] of at most 6.00 and a pIC50 [2] of 6.12 to 7.30 were found for O=C(Nc1ccc(C[C@H](NC(=O)[C@H]2CSCN2)C(=O)O)cc1)c1c(Cl)cccc1Cl [Example 11, 4-[(2,6-Dichlorobenzoyl)amino]-N-[[(4S)-4-thiazolidinyl]carbonyl]-L-phenylalanine Monohydrochloride Salt] in this work.

A pIC50 [1] of 6.00 to 6.60 and a pIC50 [2] of 6.12 to 7.30 were found for O=C(Nc1ccc(C[C@H](NC(=O)[C@H]2CCCN2C(=O)C2CCCO2)C(=O)O)cc1)c1c(Cl)cccc1Cl (stereo partly drawn) [Example 260] in this work.

A pIC50 [1] of at least 6.60 and a pIC50 [2] of 6.12 to 7.30 were found for CCOC(=O)N1CSC[C@H]1C(=O)N[C@@H](Cc1ccc(NC(=O)c2c(Cl)cccc2Cl)cc1)C(=O)O (relative stereo) [Example 16, [R-(R*,S*)]-4-[[[1-Carboxy-2-[4-[(2,6-dichlorobenzoyl)amino]phenyl]ethyl]amino]carbonyl]-3-thiazolidinecarboxylic Acid 3-Ethyl Ester] in this work.

A pIC50 [1] of at most 6.00 and a pIC50 [2] of 6.12 to 7.30 were found for CC(c1ccccc1)N1C(C(=O)O)CC1C(=O)NC(Cc1ccc(NC(=O)c2c(Cl)cccc2Cl)cc1)C(=O)O (single isomer, unassigned) [Example 139] in this work.

A pIC50 [1] of at most 6.00 and a pIC50 [2] of at most 6.12 were found for COC(=O)[C@H](Cc1ccc(NC(=O)c2c(Cl)cccc2Cl)cc1)NC(=O)[C@H]1N(C(=O)OC(C)(C)C)CSC1(C)C (relative stereo) [Example 17, [R-(R*,S*)]-4-[[[1-[[4-[(2,6-Dichlorobenzoyl)amino]phenyl]methyl]-2-methoxy-2-oxoethyl]amino]carbonyl]-5,5-dimethyl-3-thiazolidinecarboxylic Acid 3-(1,1-Dimethylethyl)ester] in this work.

A pIC50 [1] of at most 6.00 and a pIC50 [2] of at most 6.12 were found for COC(=O)[C@H](Cc1ccc(NC(=O)c2c(Cl)cccc2Cl)cc1)NC(=O)[C@H]1CSCN1C(=O)OCC1c2ccccc2-c2ccccc21 (relative stereo) [Example 18] in this work.

A pIC50 [1] of at most 6.00 and a pIC50 [2] of 6.12 to 7.30 were found for CC(C)(C)OC(=O)N1CC[C@H]1C(=O)N[C@@H](Cc1ccc(NC(=O)c2c(Cl)cccc2Cl)cc1)C(=O)O [Example 143, [2S-(R*,R*)]-2-[[[1-Carboxy-2-[4-[(2,6-dichlorobenzoyl)amino]phenyl]ethyl]amino]-carbonyl]-1-azetidinecarboxylic Acid 1-(1,1-Dimethylethyl)ester] in this work.

A pIC50 [1] of at most 6.00 and a pIC50 [2] of 6.12 to 7.30 were found for COC(=O)[C@H](Cc1ccc(NC(=O)c2c(Cl)cccc2Cl)cc1)NC(=O)[C@H]1CSCN1C(=O)OC(C)(C)C (relative stereo) [Example 1, [S-(R*,R*)]-4-[[[1-[[4-[(2,6-Dichlorobenzoyl)amino]phenyl]methyl]-2-methoxy-2-oxoethyl]amino]carbonyl]-3-thiazolidinecarboxylic Acid 3-(1,1-Dimethylethyl)ester] in this work.

A pIC50 [1] of at most 6.00 and a pIC50 [2] of at most 6.12 were found for COC(=O)[C@@H](Cc1ccc(NC(=O)c2c(Cl)cccc2Cl)cc1)NC(=O)[C@H]1CSCN1C(=O)OC(C)(C)C (stereo in doubt) [Example 26, [S-(R*,S*)]-4-[[[1-[4-[(2,6-Dichlorobenzoyl)amino]phenyl]methyl]-2-methoxy-2-oxoethyl]amino]carbonyl]-3-thiazolidinecarboxylic Acid 3-1,1-Dimethylethyl)ester] in this work.

A pIC50 [1] of at most 6.00 and a pIC50 [2] of 6.12 to 7.30 were found for N#CCCC(=O)N1CCSC[C@H]1C(=O)N[C@@H](Cc1ccc(NC(=O)c2c(Cl)cccc2Cl)cc1)C(=O)O [Example 104, N-[[(3R)-4-(3-Cyano-1-oxopropyl)-3-thiomorpholinyl]carbonyl]-4-[[2,6-dichlorobenzoyl)amino]-L-phenylalanine] in this work.

A pIC50 [1] of at most 6.00 and a pIC50 [2] of at most 6.12 were found for COC(=O)[C@H](Cc1ccc(NC(=O)c2c(Cl)cccc2Cl)cc1)NC(=O)[C@@H]1CSCN1C(C)=O [Example 69, N-[[(4R)-3-Acetyl-4-thiazolidinyl]carbonyl]-4-[(2,6-dichlorobenzoyl)amino]-L-phenylalanine Methyl Ester] in this work.

A pIC50 [1] of at least 6.60 and a pIC50 [2] of 6.12 to 7.30 were found for CC(=O)N1CSC[C@@H]1C(=O)N[C@@H](Cc1ccc(OCc2c(Cl)cccc2Cl)cc1)C(=O)O [Example 66, N-[[(4S)-3-Acetyl-4-thiazolidinyl]carbonyl]-O-[(2,6-dichlorophenyl)methyl]-L-tyrosine] in this work.

A pIC50 [1] of 6.00 to 6.60 and a pIC50 [2] of at least 7.30 were found for O=C(Nc1ccc(C[C@H](NC(=O)[C@@H]2CSCCN2C(=O)CCc2nnn[nH]2)C(=O)O)cc1)c1c(Cl)cccc1Cl [Example 103, 4-[(2,6-Dichlorobenzoyl)amino]-N-[[(3R)-4-[1-oxo-3-(1H-tetrazol-5-yl)propyl]-3-thiomorpholinyl]-carbonyl]-L-phenylalanine] in this work.

A pIC50 [1] of 6.00 to 6.60 and a pIC50 [2] of 6.12 to 7.30 were found for O=C(O)CCC(=O)N1CCC[C@@H]1C(=O)N[C@@H](Cc1ccc(NC(=O)c2c(Cl)cccc2Cl)cc1)C(=O)O [Example 254] in this work.

A pIC50 [1] of at most 6.00 and a pIC50 [2] of 6.12 to 7.30 were found for O=C(O)CCC(=O)N1CSC[C@H]1C(=O)N[C@@H](Cc1ccc(NC(=O)c2c(Cl)cccc2Cl)cc1)C(=O)O (relative stereo) [Example 67, [R-(R*,S*)]-4-[[[1-Carboxy-2-[4-[(2,6-dichlorobenzoyl)amino]phenyl]ethyl]amino]carbonyl]-γ-oxo-3-thiazolidinebutanoic Acid] in this work.

A pIC50 [1] of at most 6.00 and a pIC50 [2] of at most 6.12 were found for COC(=O)[C@H](Cc1ccc(NC(=O)c2c(Cl)cccc2Cl)cc1)NC(=O)[C@H]1CSCN1C(=O)OCc1ccccc1 (relative stereo) [Example 20, [S-(R*,R*)]-4-[[[1-[[4-[(2,6-Dichlorobenzoyl)amino]phenyl]methyl]-2-methoxy-2-oxoethyl]amino]carbonyl]-3-thiazolidinecarboxylic Acid 3-Phenylmethyl Ester] in this work.

A pIC50 [1] of at least 6.60 and a pIC50 [2] of at least 7.30 were found for O=C(Nc1ccc(C[C@H](NC(=O)[C@H]2CSCN2C(=O)OCc2ccccn2)C(=O)O)cc1)c1c(Cl)cccc1Cl (relative stereo) [Example 149, [S-(R*,R*)]-4-[[[-Carboxy-2-[4-[(2,6-dichlorobenzoyl)amino]phenyl]ethyl]amino]carbonyl]-3-thiazolidinecarboxylic Acid 3-(2-pyridinylmethyl)ester] in this work.

A pIC50 [1] of at least 6.60 and a pIC50 [2] of at least 7.30 were found for COC(=O)[C@H](Cc1ccc(NC(=O)c2c(Cl)cccc2Cl)cc1)NC(=O)[C@H]1CSCN1C(=O)OCc1ccccn1 (relative stereo) [Example 148, [S-(R*,R*)]-4-[[[1-[[4-[(2,6-Dichlorobenzoyl)amino]phenyl]methyl]-2-methoxy-2-oxoethyl]amino]carbonyl]-3-thiazolidinecarboxylic Acid 3-(2-Pyridinylmethyl)ester] in this work.

A pIC50 [1] of at least 6.60 and a pIC50 [2] of at least 7.30 were found for COC(=O)CCCC(=O)N1CSC[C@@H]1C(=O)N[C@@H](Cc1ccc(NC(=O)c2c(Cl)cccc2Cl)cc1)C(=O)O (relative stereo) [Example 151, [S-(R*,R*)]-4-[[[1-Carboxy-2-[4-[(2,6-dichlorobenzoyl)amino]phenyl]ethyl]amino]carbonyl]-δ-oxo-3-thiazoidinepentanoic Acid Methyl Ester] in this work.

A pIC50 [1] of 6.00 to 6.60 and a pIC50 [2] of 6.12 to 7.30 were found for O=C(O)c1cccc(C(=O)N2CCCC[C@H]2C(=O)N[C@@H](Cc2ccc(NC(=O)c3c(Cl)cccc3Cl)cc2)C(=O)O)c1 [Example 182] in this work.

A pIC50 [1] of at most 6.00 and a pIC50 [2] of 6.12 to 7.30 were found for O=C(Nc1ccc(C[C@H](NC(=O)C2CCCN(C(=O)C3CCCC(C(=O)O)C3)C2)C(=O)O)cc1)c1c(Cl)cccc1Cl (stereo partly drawn) [Example 200] in this work.

A pIC50 [1] of at least 6.60 and a pIC50 [2] of 6.12 to 7.30 were found for O=C(Nc1ccc(C[C@H](NC(=O)[C@H]2CSCN2C(=O)OCc2ccccc2)C(=O)O)cc1)c1c(Cl)cccc1Cl (relative stereo) [Example 21, [S-(R*,R*)]-4-[[[1-Carboxy-2-[4-[(2,6-dichlorobenzoyl)amino]phenyl]ethyl]amino]carbonyl]-3-thiazolidinecarboxylic Acid 3-Phenylmethyl Ester] in this work.

A pIC50 [1] of 6.00 to 6.60 and a pIC50 [2] of 6.12 to 7.30 were found for CCOC(=O)N1CSC[C@@H]1C(=O)N[C@@H](Cc1ccc(OCc2c(Cl)cccc2Cl)cc1)C(=O)O (relative stereo) [Example 35, [S-(R*,R*)]-4-[[[1-Carboxy-2-[4-[(2,6-dichlorophenyl)methoxy]phenyl]ethyl]amino]carbonyl]-3-thiazolidinecarboxylic Acid 3-Ethyl Ester] in this work.

A pIC50 [1] of 6.00 to 6.60 and a pIC50 [2] of 6.12 to 7.30 were found for CCS(=O)(=O)N1CSC[C@@H]1C(=O)N[C@@H](Cc1ccc(NC(=O)c2c(Cl)cccc2Cl)cc1)C(=O)OC [Example 42] in this work.
